{"source": "ChEMBL document CHEMBL5131541", "about": "“Structural Feature Analyzation Strategies toward Discovery of Orally Bioavailable PROTACs of Bruton's Tyrosine Kinase for the Treatment of Lymphoma” (J Med Chem, 2022)", "key": {"[1]": {"biological_target": "T1, Tyrosine-protein kinase BTK (Homo sapiens, UniProt Q06187)", "T1 sequence (Q06187 whole entry)": "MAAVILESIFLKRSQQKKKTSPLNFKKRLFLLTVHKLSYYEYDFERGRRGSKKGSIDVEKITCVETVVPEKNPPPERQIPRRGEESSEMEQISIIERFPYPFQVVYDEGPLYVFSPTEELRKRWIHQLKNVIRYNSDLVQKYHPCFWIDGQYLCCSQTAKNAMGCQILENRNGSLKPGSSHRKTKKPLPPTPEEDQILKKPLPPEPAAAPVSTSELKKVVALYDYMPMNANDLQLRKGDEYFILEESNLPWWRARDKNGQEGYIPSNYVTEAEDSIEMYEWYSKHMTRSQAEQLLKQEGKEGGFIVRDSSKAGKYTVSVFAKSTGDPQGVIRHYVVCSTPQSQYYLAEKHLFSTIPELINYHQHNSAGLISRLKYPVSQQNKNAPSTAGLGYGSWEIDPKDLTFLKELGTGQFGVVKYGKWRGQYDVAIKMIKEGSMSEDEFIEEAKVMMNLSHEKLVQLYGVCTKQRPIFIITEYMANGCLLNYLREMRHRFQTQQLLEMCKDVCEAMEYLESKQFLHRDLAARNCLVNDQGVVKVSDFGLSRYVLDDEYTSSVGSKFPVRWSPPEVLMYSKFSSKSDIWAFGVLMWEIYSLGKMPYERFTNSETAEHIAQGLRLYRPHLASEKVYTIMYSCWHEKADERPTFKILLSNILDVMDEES", "assay": "Induction of BTK degradation in human MINO cells incubated for 24 hrs by Western blot", "format": "cell-based", "settings": "dose 1-1000 nM, DDE = dose-dependent effect"}, "[2]": {"biological_target": "T1, Tyrosine-protein kinase BTK", "assay": "Induction of BTK degradation in human MINO cells at 0.1 to 1000 nM incubated for 8 hrs by Western blot analysis relative to control", "format": "cell-based", "settings": "dose 0.1-1000 nM"}, "[3]": {"assay": "Induction of leukocyte c-SRC kinase degradation in human MINO cells at 100 nM measured after 8 hrs by proteomic analysis"}, "[4]": {"assay": "AUC (0 to t) in Sprague-Dawley rat at 5 to 10 mg/kg, po administered as cassette dose measured upto 24 hrs by LC-MS analysis", "format": "ADME, organism-based", "design": "time < 24 hrs, route po", "settings": "in vivo, dose 5-10 mg/kg"}, "[5]": {"assay": "Toxicity in SCID mouse xenografted with OCILY10 cells assessed as effect on body weight at 10 to 30 mg/kg, po bid measured after 17 days", "format": "organism-based", "settings": "in vivo, 408 h, dose 10-30 mg/kg, time 17 day"}, "HEK293 [6]": {"test_system": "HEK293", "assay": "Induction of BTK C481 mutant degradation in human HEK293 cells incubated for 24 hrs by Western blot analysis", "format": "cell-based", "settings": "dose 1-1000 nM, DDE = dose-dependent effect"}, "[7]": {"assay": "Cmax in ICR mouse at 100 mg/kg, po measured upto 48 hrs by LC/MS analysis", "format": "ADME, organism-based", "design": "dose 100 mg/kg, time < 48 hrs, route po", "settings": "in vivo"}, "JeKo-1 [8]": {"test_system": "JeKo-1", "assay": "cells", "settings": "Homo sapiens"}, "[9]": {"assay": "Volume of distribution at steady state in ICR mouse at 2 mg/kg, iv measured upto 48 hrs by LC/MS analysis", "format": "ADME, organism-based", "settings": "in vivo, read-out: Vdss"}, "[10]": {"biological_target": "Tyrosine-protein kinase BTK (Mus musculus) (UniProt P35991)", "sequence (P35991 whole entry)": "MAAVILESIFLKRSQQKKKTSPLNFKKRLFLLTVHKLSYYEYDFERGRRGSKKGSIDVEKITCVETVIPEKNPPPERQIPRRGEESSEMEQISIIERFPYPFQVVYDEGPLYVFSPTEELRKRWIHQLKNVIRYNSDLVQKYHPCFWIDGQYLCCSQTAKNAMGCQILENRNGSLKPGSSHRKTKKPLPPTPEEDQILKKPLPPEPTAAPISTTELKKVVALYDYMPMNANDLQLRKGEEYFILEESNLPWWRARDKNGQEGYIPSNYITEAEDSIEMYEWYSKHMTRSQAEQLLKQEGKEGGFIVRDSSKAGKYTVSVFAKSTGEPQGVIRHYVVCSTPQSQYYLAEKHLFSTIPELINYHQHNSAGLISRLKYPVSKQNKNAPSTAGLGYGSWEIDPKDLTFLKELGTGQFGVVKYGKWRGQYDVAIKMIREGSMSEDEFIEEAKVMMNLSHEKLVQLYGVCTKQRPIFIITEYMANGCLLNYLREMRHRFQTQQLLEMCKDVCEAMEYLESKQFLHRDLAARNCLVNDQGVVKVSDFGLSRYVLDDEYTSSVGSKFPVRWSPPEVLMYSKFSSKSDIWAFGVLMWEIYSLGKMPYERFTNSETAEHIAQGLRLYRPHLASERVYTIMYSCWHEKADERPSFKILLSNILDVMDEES", "assay": "In vivo induction of BTK degradation in ICR mouse monocytes assessed as protein remaining at 100 mg/kg, po after 6 hrs by Western blot analysis relative to control", "format": "functional, organism-based"}, "[11]": {"assay": "Clearance in ICR mouse at 2 mg/kg, iv measured upto 48 hrs by LC/MS analysis", "format": "ADME, organism-based", "settings": "in vivo"}, "[12]": {"biological_target": "T1, Tyrosine-protein kinase BTK", "assay": "Induction of BTK degradation in human MINO cells incubated for 24 hrs by Western blot based densitometry analysis", "format": "cell-based"}, "[13]": {"assay": "Half life in ICR mouse at 100 mg/kg, po measured upto 48 hrs by LC/MS analysis", "format": "ADME, organism-based", "settings": "in vivo"}, "OCI-Ly10 [14]": {"test_system": "OCI-Ly10", "assay": "Antitumor activity against human OCILY10 cells xenografted in SCID mouse assessed as tumor growth inhibition at 10 mg/kg, po bid measured after 17 days relative to control", "format": "functional", "design": "scale not given: the % may be the effect or the level left", "settings": "time 17 day"}, "[15]": {"assay": "MRT in ICR mouse at 2 mg/kg, iv measured upto 48 hrs by LC/MS analysis", "format": "ADME, organism-based", "settings": "in vivo"}, "[16]": {"assay": "AUC (0 to infinity) in ICR mouse at 100 mg/kg, po measured upto 48 hrs by LC/MS analysis", "format": "ADME, organism-based", "design": "time < 48 hrs, dose 100 mg/kg, route po", "settings": "in vivo"}, "[17]": {"assay": "Half life in Sprague-Dawley rat at 5 to 10 mg/kg, po administered as cassette dose measured upto 24 hrs by LC-MS analysis", "format": "ADME, organism-based", "settings": "in vivo, dose 5-10 mg/kg"}, "[18]": {"assay": "Dose normalized AUC (0 to t) in Sprague-Dawley rat at 5 to 10 mg/kg, po administered as cassette dose measured upto 24 hrs by LC-MS analysis", "format": "ADME, organism-based", "settings": "in vivo, dose 5-10 mg/kg"}, "JeKo-1 [19]": {"test_system": "JeKo-1", "assay": "cells", "settings": "Homo sapiens", "remark": "listed apart in the source"}, "[20]": {"biological_target": "T1, Tyrosine-protein kinase BTK", "assay": "Induction of BTK degradation in human MINO cells at 100 nM measured after 8 hrs by proteomic analysis", "format": "cell-based"}, "[21]": {"assay": "Cmax in Sprague-Dawley rat at 5 to 10 mg/kg, po administered as cassette dose measured upto 24 hrs by LC-MS analysis", "format": "ADME, organism-based", "design": "time < 24 hrs, route po", "settings": "in vivo, dose 5-10 mg/kg"}, "[22]": {"biological_target": "T1, Tyrosine-protein kinase BTK", "assay": "Induction of BTK degradation in human MINO cells at 0.1 to 1000 nM incubated for 2 hrs by Western blot analysis", "format": "cell-based", "settings": "dose 0.1-1000 nM"}, "[23]": {"biological_target": "T1, Tyrosine-protein kinase BTK", "assay": "Induction of BTK degradation in human MINO cells assessed as reduction in PLCgamma-2 phosphorylation incubated for 24 hrs by Western blot analysis", "format": "cell-based", "settings": "dose 1-200 nM, DDE = dose-dependent effect"}, "[24]": {"biological_target": "T1, Tyrosine-protein kinase BTK", "assay": "Inhibition of BTK (unknown origin)"}, "OCI-Ly10 [25]": {"test_system": "OCI-Ly10", "assay": "Antitumor activity against human OCILY10 cells xenografted in SCID mouse assessed as tumor growth inhibition at 30 mg/kg, po bid measured after 17 days relative to control", "format": "functional", "design": "scale not given: the % may be the effect or the level left", "settings": "time 17 day"}, "[26]": {"assay": "Tmax in Sprague-Dawley rat at 5 to 10 mg/kg, po administered as cassette dose measured upto 24 hrs by LC-MS analysis", "format": "ADME, organism-based", "settings": "in vivo, dose 5-10 mg/kg"}, "OCI-Ly10 [27]": {"test_system": "OCI-Ly10", "assay": "cells", "settings": "Homo sapiens"}, "[28]": {"biological_target": "T1, Tyrosine-protein kinase BTK", "assay": "Induction of BTK degradation in human MINO cells assessed as maximum degradation incubated for 24 hrs by Western blot based densitometry analysis relative to control", "format": "cell-based"}, "[29]": {"biological_target": "T1, Tyrosine-protein kinase BTK", "assay": "Induction of BTK degradation in human MINO cells assessed as reduction in NFkappaB phosphorylation incubated for 24 hrs by Western blot analysis", "format": "cell-based", "settings": "dose 1-200 nM, DDE = dose-dependent effect"}, "TMD8": {"test_system": "TMD8", "assay": "cells", "settings": "Homo sapiens"}, "HEK293 [30]": {"test_system": "HEK293", "assay": "Induction of BTK T316 mutant degradation in human HEK293 cells incubated for 24 hrs by Western blot analysis", "format": "cell-based", "settings": "dose 1-1000 nM, DDE = dose-dependent effect"}, "[31]": {"biological_target": "Proto-oncogene tyrosine-protein kinase Src (Homo sapiens) (UniProt P12931)", "sequence (P12931 2-536 limits assumed)": "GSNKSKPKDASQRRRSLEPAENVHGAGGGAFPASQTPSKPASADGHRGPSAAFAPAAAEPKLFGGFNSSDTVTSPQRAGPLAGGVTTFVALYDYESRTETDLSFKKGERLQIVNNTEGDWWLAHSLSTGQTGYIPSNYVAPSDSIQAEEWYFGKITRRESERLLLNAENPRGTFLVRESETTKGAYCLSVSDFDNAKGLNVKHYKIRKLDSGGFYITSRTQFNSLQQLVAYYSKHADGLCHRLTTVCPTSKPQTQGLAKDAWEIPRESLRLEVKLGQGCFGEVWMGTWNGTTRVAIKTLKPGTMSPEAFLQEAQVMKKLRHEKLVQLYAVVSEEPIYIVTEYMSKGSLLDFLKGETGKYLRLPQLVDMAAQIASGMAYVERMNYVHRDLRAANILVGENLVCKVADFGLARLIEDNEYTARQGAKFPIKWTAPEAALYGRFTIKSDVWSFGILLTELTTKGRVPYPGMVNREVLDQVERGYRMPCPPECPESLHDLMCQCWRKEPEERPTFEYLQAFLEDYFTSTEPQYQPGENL", "assay": "Induction of c-SRC tyrosine kinase degradation in human MINO cells at 100 nM measured after 8 hrs by proteomic analysis", "format": "cell-based"}, "[32]": {"assay": "Tmax in ICR mouse at 100 mg/kg, po measured upto 48 hrs by LC/MS analysis", "format": "ADME, organism-based", "settings": "in vivo"}, "[33]": {"test_system": "Tyrosine-protein kinase BTK (Homo sapiens), Q06187 [C481S]", "sequence (Q06187 whole entry C481S)": "as the sequence (Q06187 whole entry) above, with C481S counted along it", "assay": "Inhibition of BTK C481S mutant (unknown origin)"}, "[34]": {"biological_target": "Tyrosine-protein kinase BTK (Mus musculus) (UniProt P35991)", "assay": "In vivo induction of BTK degradation in ICR mouse monocytes assessed as protein remaining at 100 mg/kg, po after 24 hrs by Western blot analysis relative to control", "format": "functional, organism-based", "settings": "Monocyte"}, "[35]": {"assay": "Oral bioavailability in ICR mouse at 100 mg/kg measured upto 48 hrs by LC/MS analysis", "format": "ADME, organism-based", "settings": "in vivo"}, "[36]": {"assay": "AUC (0 to t) in ICR mouse at 100 mg/kg, po measured upto 48 hrs by LC/MS analysis", "format": "ADME, organism-based", "design": "time < 48 hrs, dose 100 mg/kg, route po", "settings": "in vivo"}}, "note": "Activity calls are given as the source filed them. The rule behind the calls is not given here.", "data": [{"smiles": "Nc1ncnc2c1c(-c1ccc(Oc3ccccc3)cc1)nn2C1CCN(C2CCN(CC#Cc3ccc4c(c3)CN(C3CCC(=O)NC3=O)C4=O)CC2)CC1", "note": "(configuration not stated)", "values": [{"measurement": "Activity", "setting": "[1]", "value": "Dde"}, {"measurement": "Activity", "setting": "[2]", "value": 91, "unit": "%"}, {"measurement": "Activity", "setting": "[3]", "value": "Active"}, {"measurement": "AUC(0-t) at 24 h", "setting": "[4]", "value": 83, "unit": "ng·h/mL"}, {"measurement": "Activity", "setting": "[5]", "value": "Non-Toxic"}, {"measurement": "Activity", "setting": "HEK293 [6]", "value": "Dde"}, {"measurement": "Cmax", "setting": "[7]", "value": 3090, "unit": "ng/mL"}, {"measurement": "IC50", "setting": "JeKo-1 [8]", "value": 105, "unit": "nM"}, {"measurement": "Vd", "setting": "[9]", "value": 3.1, "unit": "L/kg"}, {"measurement": "Activity", "setting": "[10]", "value": "Active"}, {"measurement": "clearance", "setting": "[11]", "value": 11.8, "unit": "mL/min/kg"}, {"measurement": "DC50", "setting": "[12]", "value": 5.8, "unit": "nM"}, {"measurement": "half-life", "setting": "[13]", "value": 1, "unit": "h"}, {"measurement": "Activity", "setting": "OCI-Ly10 [14]", "value": 50.9, "unit": "%"}, {"measurement": "MRT", "setting": "[15]", "value": 4.5, "unit": "h"}, {"measurement": "AUC(0-inf)", "setting": "[16]", "value": 17100, "unit": "ng·h/mL"}, {"measurement": "half-life", "setting": "[17]", "value": 12.7, "unit": "h"}, {"measurement": "AUCt/dose", "setting": "[18]", "value": 8, "unit": "ng·h/mL/mg"}, {"measurement": "IC50", "setting": "JeKo-1 [19]", "value": 708, "unit": "nM"}, {"measurement": "Activity", "setting": "[20]", "value": "Active"}, {"measurement": "Cmax", "setting": "[21]", "value": 16, "unit": "ng/mL"}, {"measurement": "Activity", "setting": "[22]", "value": "Active"}, {"measurement": "Activity", "setting": "[23]", "value": "Dde"}, {"measurement": "IC50", "setting": "[24]", "value": 9, "unit": "nM"}, {"measurement": "Activity", "setting": "OCI-Ly10 [25]", "value": 96.9, "unit": "%"}, {"measurement": "Tmax", "setting": "[26]", "value": 0.7, "unit": "h"}, {"measurement": "IC50", "setting": "OCI-Ly10 [27]", "value": 5.9, "unit": "nM"}, {"measurement": "Emax", "setting": "[28]", "value": 96, "unit": "%"}, {"measurement": "Activity", "setting": "[29]", "value": "Dde"}, {"measurement": "IC50", "setting": "TMD8", "value": 4.7, "unit": "nM"}, {"measurement": "Activity", "setting": "HEK293 [30]", "value": "Dde"}, {"measurement": "Activity", "setting": "[31]", "value": "Active"}, {"measurement": "Tmax", "setting": "[32]", "value": 8.3, "unit": "h"}, {"measurement": "inhibition", "setting": "[33]", "value": "Active"}, {"measurement": "Activity", "setting": "[34]", "value": 24, "unit": "%"}, {"measurement": "bioavailability", "setting": "[35]", "value": 12, "unit": "%"}, {"measurement": "AUC(0-t) at 48 h", "setting": "[36]", "value": 16900, "unit": "ng·h/mL"}]}]}
